What was measured:
[1] = test system: Cyp1a1 (mRNA, through AHR); test: Cyp1a1 mRNA induction in TH17cond CD4+ T cells (qPCR); assay type: cell-based, mouse; conditions: mouse, day 3 TH17-conditioned primary CD4+ T cells, D3 TH17cond CD4+ T cells, 2 h; read-out: EC50 to drive Cyp1A1 mRNA expression
Protocol: To activate primary T cells, spleens and/or lymph nodes (LN) were removed, disaggregated and red blood cells lysed. Cells were stimulated with 1 μg/ml of the CD3 monoclonal antibody (2C11) and 2 μg/ml anti-CD28 (37.51; ebiosciences) to trigger the TCR. Naive CD4^+ T cells and 24 h TCR-activated CD4^+ T cells were purified using CD4 isolation kit (EasySep, STEMCELL Technologies). […] Proleukin, Novartis) for a further 3–5 days. To generate TH1s and TH17s, murine CD8^+ T cells were depleted from lymph node preparations using CD8 depletion kit (EasySep, STEMCELL Technologies). […] RnD Systems) and IL-2 (20 ng/ml) and for TH17s; cytokines IL-6 (50 ng/ml, Peprotech), IL-1β (10 ng/ml, Peprotech) and TGFβ (2 ng/ml, Peprotech). TH17s were cultured in IMDM (Gibco). All other cells were cultured in RPMI 1640 containing L-glutamine (Gibco). Culture media was supplemented with 10% FBS (Gibco), 50 μM β-mercaptoethanol (β-ME, Sigma) and penicillin/streptomycin (Gibco). Cells were incubated at 37 °C with 5% CO2 throughout. […] RNA was purified using the RNeasy RNA purification Mini Kit (Qiagen) (Genomic DNA was digested with RNase-free DNase (Qiagen) following manufacturer instructions) and reverse-transcribed using the iScript cDNA synthesis kit (BioRad). Quantitative PCR was performed in 96-well plate format using iQ SYBR Green-based detection (BioRad) on a BioRad iCycler.

mTORC1 = mTORC1 activity in CTLs after leucine removal and refeeding; assay type: cell-based, mouse; conditions: CTLs removed from leucine, refed leucine 100uM ± Kyn 100uM
Description: page 13: • We […] would not be able to measure the levels of in vivo ky nurenine uptake with this assay (for the reasons explained above). However, this is a pertinent question, and will relate to the total amount of available kynurenine compared to alternative System L substrates. The detailed micro-environmental metabolomics techniques required to perform this kind of analysis is beyond the scope of this paper, however we have tried to address this point in the discussion. Second, did CD4 T cells (Foxp3-) and Tregs (Foxp3+) from Lm-infected mice also i mport Ky n? […] This, also, is a very interesting aspect, however we feel that it is beyond the scope of this paper. Point 4: Data presented in Figures 4 & 5 show convincingly that SLC7A5 ablation in CD4 T cells abolishes Kyn uptake in CD4 T cells selectively and that imported Kyn triggers AhR signaling in CD4 T cells, respectively. However, no data is presented to address the biological significance of these findings, specifically regarding the reported ability of Kyn to suppress Th1 responses (e.g. IFNg production) or to reinforce Treg-mediated suppression of effector T cells via AhR signaling. […]

AHR = test system: AHR; parameters: method as in PMID 25657351, PMID 29279331; conditions: cited from earlier work
System L transporter = target: T1, System L transporter (Mus musculus, UniProt Q9Z127); test: Radiolabelled 3H-tryptophan uptake in TH1 cells and CTLs; assay type: cell-based; conditions: BCH 5 mM
T1 construct: Radiolabelled tracer uptake in IL-2 maintained TH1 cells (top panels) and IL-2 maintained CTLs (bottom panels); endogenous in cells; host or cells: IL-2 maintained mouse TH1 cells and CTLs
Protocol: (§1) Briefly, radiolabelled uptake was carried out using 1 × 10^6 cells resuspended in 0.4 ml uptake medium. Kynurenine uptake was carried out in warmed (37 °C) HBSS (GIBCO) containing [^3H] L-kynurenine (0.1 μCi/ml). 4 min uptake assays were carried out layered over 0.5 ml of 1:1 silicone oil (Dow Corning 550 (BDH silicone products; specific density, 1.07 g/ml):dibutyl phthalate (Fluka)). Cells were pelleted below the oil, the aqueous supernatant solution, followed by the silicon oil/dibutyl phthalate mixture was aspirated, and the cell pellet underneath resuspended in 200 μl NaOH (0.5 M) and β-radioactivity measured by liquid scintillation counting in a Beckman LS 6500 Multi-Purpose Scintillation Counter (Beckman Coulter). Similarly, glutamine uptake was performed using [^3H] L-glutamine (0.5 μCi/ml); tryptophan uptake was performed using [^3H] L-tryptophan (0.5 μCi/ml). Where indicated, 5 mM BCH, Kynurenine, L-glutamine or L-tryptophan were used, respectively, to quench radiolabeled ligand uptake. Where indicated, the sodium free buffer was prepared using TMACl as described in Baird et al.[35] Data are expressed as molecules radiotracer per cell per minute. [^3H] L-kynurenine, [^3H] L-tryptophan and [^3H] L-glutamine were obtained from Perkin Elmer. All other chemicals were obtained from Sigma.

activated T cells = test: Radiolabelled 3H-glutamine uptake in activated T cells; assay type: cell-based, mouse; conditions: IL-2 maintained TH1 cells and CTLs, BCH 5 mM
Protocol: as §1

D3 TH17cond CD4+ T cells = test: FICZ uptake by flow cytometry (530 nm emission); assay type: cell-based, mouse; conditions: FICZ 300 nM, 4 min, BCH 10 mM
Description: Error bars are ±s.d. Individual points indicate biological replicates. MFIs are indicated in the histograms, data are from three biological replicates (a–g, i–j) and six (Kyn) or three biological replicates (FICZ) (h).
As a control, we used the AHR ligand 6-formylindolo[3,2-b]carbazole (FICZ), a tryptophan-derived photoproduct. The intrinsic fluorescence of FICZ has previously been used to monitor cellular accumulation of FICZ by flow cytometry using BP filter for 530/30 nm emission with 488 nm laser excitation[27]. […] Further evidence for the importance of System L transport for kynurenine action came from experiments using BCH treatment to inhibit System L transport.

[2] = target: T2, System L transporter SLC7A5 (Mus musculus, UniProt Q9Z127); test: Flow cytometry kynurenine uptake assay (450 nm fluorescence) in T cells; assay type: cell-based; conditions: D3 TH17cond CD4+ T cells, kynurenine 100 μM, 4 min, BCH 10 mM
T2 construct: endogenous in cells
T2 sequence (Q9Z127 whole entry): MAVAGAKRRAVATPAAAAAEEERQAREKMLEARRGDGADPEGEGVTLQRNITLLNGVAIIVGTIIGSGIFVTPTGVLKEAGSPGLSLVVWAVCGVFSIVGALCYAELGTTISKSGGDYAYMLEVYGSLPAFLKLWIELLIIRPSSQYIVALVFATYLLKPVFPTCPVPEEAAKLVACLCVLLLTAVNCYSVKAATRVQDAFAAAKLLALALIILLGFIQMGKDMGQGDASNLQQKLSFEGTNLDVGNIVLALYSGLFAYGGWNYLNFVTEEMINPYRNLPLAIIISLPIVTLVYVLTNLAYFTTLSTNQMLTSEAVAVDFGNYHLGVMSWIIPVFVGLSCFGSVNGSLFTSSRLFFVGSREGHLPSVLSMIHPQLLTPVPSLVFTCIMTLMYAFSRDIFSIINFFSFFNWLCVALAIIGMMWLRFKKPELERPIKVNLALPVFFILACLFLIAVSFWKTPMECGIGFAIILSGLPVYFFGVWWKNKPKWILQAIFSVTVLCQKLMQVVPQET
T2 sequence (P10852 whole entry partner): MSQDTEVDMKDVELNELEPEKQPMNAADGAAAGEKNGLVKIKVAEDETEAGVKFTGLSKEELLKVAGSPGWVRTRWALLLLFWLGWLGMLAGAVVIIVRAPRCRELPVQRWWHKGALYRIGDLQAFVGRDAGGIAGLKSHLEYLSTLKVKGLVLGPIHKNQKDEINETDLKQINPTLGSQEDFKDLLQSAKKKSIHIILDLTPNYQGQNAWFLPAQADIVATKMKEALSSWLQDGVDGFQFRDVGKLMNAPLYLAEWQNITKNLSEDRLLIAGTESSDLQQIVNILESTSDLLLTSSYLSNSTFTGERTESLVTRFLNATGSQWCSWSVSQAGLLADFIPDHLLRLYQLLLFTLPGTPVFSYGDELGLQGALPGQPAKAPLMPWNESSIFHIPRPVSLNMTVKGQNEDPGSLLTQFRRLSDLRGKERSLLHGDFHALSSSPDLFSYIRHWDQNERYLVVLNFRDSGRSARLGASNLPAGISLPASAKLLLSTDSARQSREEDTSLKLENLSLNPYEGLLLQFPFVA

T1 sequence (Q9Z127 whole entry): as the sequence (Q9Z127 whole entry) above
T1 sequence (P10852 whole entry partner): as the sequence (P10852 whole entry partner) above

Compound	EC50 at 2 h [1]	effect on mTORC1 activity (mTORC1)	concentrations needed to activate the AHR (AHR)	effect on 3H-tryptophan transport (System L transporter)	effect on radiolabelled glutamine uptake (activated T cells)	effect on FICZ uptake (D3 TH17cond CD4+ T cells)	effect on kynurenine uptake [2]
Nc1ccccc1C(=O)CC(N)C(=O)O (stereo not shown) [kynurenine]	11 µM	impair restoration of mTORC1 activity	μM levels	–	–	–	–
NC1(C(=O)O)CC2CCC1C2 (stereo not shown) [BCH, 2-amino-2-norbornanecarboxylic acid]	–	–	–	inhibited	failure to block	not affected	inhibited
